Assay results as given in patent US8188138B2, “Sulphonylpyrrole hydrochloride salts as histone deacetylases inhibitors” (4SC AG, priority 2005, dated 2012).
Where two headings read alike, the source gives them in different places.

Assays:
Type in all cases: cell-based
[1] = system: histone H3 hyperacetylation in HeLa cervical carcinoma cells; assay: Cellular histone H3 hyperacetylation assay; conditions: Homo sapiens, 24 h, range stated for the listed group, read-out: Induction of histone H3 hyperacetylation EC50
Text: To assess the cellular efficacy of a histone deacetylase inhibitor in vitro, an assay was set up in black clear-bottom 96-well plates and optimized for use on the Cellomics “ArrayScan II” platform for a quantitative calculation of histone acetylation. The protocol uses a polyclonal rabbit antibody, specifically binding to acetylated lysine 23 or, alternatively, acetylated lysine 9+14 of human histone H3 on fixed cells with an Alexa Fluor 488 labeled goat anti rabbit-IgG used for counterstaining (modified from Braunger et al. AACR annual conference 2003, Abstract 4556). 5×10^3 HeLa cervical carcinoma cells/well (ATCC CCL-2) in 200 μl Dulbecco's modified Eagle's medium (DMEM) containing 10% fetal calf serum are seeded at day 1 in Packard view plates and incubated for 24 h under standard cell culture conditions. On day 2, 1 μl test compound (200× final concentration) is added and incubation continued for further 24 h. On day 3, the culture medium is discarded and attached cells fixed for 15 min at room temperature by addition of 100 μl fixation buffer (3.7% v:v formaldehyde in phosphate buffered saline/PBS). After discarding the fixation buffer and one wash with blocking solution (1% BSA, 0.3% Tween 20 in PBS), cells are permeabilized at room temperature by addition of 100 μl/well permeabilization buffer (30.8 mM NaCl, 0.54 mM Na2HPO4, 0.31 mM KH2PO4, 0.1% v:v […]) for 15 min at room temperature. After discarding the permeabilization buffer and washing twice with 100 μl/well blocking solution at room temperature, the 1st antibody (anti-K23 histone H3 antibody, Cell Signaling No. 9674 or, alternatively, anti-K9+14 histone H3 antibody, Calbiochem No. 382158) in blocking solution (50 μl/well) is added. After incubation for 1 h at room temperature, the wells are washed twice at room temperature with 100 μl/well blocking solution before addition of the 2nd antibody (goat-anti-rabbit Alexa Fluor 488; MoBiTec No. A-11008) in blocking solution (50 μl/well). After further incubation for 1 h at room temperature, wells are washed twice with 100 μl/well blocking solution at room temperature. Finally, 100 μl/well PBS are added and image analysis performed on the Cellomics “ArrayScan II” platform. For EC50 determination, the percentage of positive cells showing nuclear fluorescence is determined and EC50 calculation done from concentration-effect curves by means of non-linear regression. For calibration, a positive (reference HDAC inhibitors like SAHA or NVP LBH-589) and a negative control were included.

[2] = system: HeLa cervical carcinoma cells; assay: Cellular cytotoxicity assay (Alamar Blue), HeLa; conditions: Homo sapiens, 72 h, range stated for the listed group
Description: (§1) The anti-proliferative activity of the histone deacetylase inhibitory compounds as described herein, was evaluated using the following cell lines: HeLa and HeLa—KB (cervical carcinoma), H460 (non small cell lung cancer), A549 (non-small cell lung cancer), MCF7 (breast carcinoma), MCF10A (normal, non tumorigenic breast epithelial), MDA-MB468 (breast carcinoma), MDA-MB435 (breast carcinoma), MDA-MB231 (breast carcinoma), SKBR-3 (breast carcinoma), SKOV-3 (ovarial carcinoma), A-2780 (ovarial carcinoma), RKO (colon carcinoma), HCT-15 (colon carcinoma), HCT-116 (colon carcinoma), PC3 (prostate carcinoma), BPH1 (benign prostate hyperplasia), AsPC1 (pancreatic carcinoma), Cal27 (tongue carcinoma), A-431 (vulva carcinoma), HeclA (endometrial carcinoma), Saos-2 (osteosarcoma), U87MG (glioblastoma), WM266-4 (melanoma), K562 (chronic myeloid carcinoma), EOL1 (acute hypereosinophilic myeloid leukemia), CCRF-CEM and CCRF-CEM VCR1000 (acute lymphoblastic leukemia sensitive and resistant towards Vincristine). For quantification of cellular proliferation/living cells the Alamar Blue (Resazurin) cell viability assay was applied (O'Brien et al. Eur J Biochem 267, 5421-5426, 2000). In this assay Resazurin is reduced to the fluorescent resorufin by cellular dehydrogenase activity, correlating with viable, proliferating cells. The examples were dissolved as 20 mM solutions in dimethylsulfoxide (DMSO) and subsequently diluted in semi-logarithmic steps. Cell lines were seeded at respective density into 96 well flat bottom plates in a volume of 200 μl per well. 24 hours after seeding 1 μl each of the compound dilutions were added into each well of the 96 well plate. Each compound dilution was tested as quadruplicates. Wells containing untreated control cells were filled with 200 μl DMEM medium containing 0.5% v:v DMSO. The cells were then incubated with the substances for 72 hours at 37° C. in a humidified atmosphere containing 5% carbon dioxide. To determine the viability of the cells, 20 μl of an Resazurin solution (Sigma; 90 mg/l) were added. After 4 hours incubation at 37° C. the fluorescence was measured at an extinction of 544 nm and an emission of 590 nm. For the calculation of the cell viability the emission value from untreated cells was set as 100% viability and the emission rates of treated cells were set in relation to the values of untreated cells. Viabilities were expressed as % values. The corresponding IC50 values of the compounds for cytotoxic activity are determined from the concentration-effect curves by means of non-linear regression.

[3] = system: MDA-MB468 breast cancer cells; assay: Breast cancer cell differentiation assay (Nile Red, flow cytometry); conditions: 24 h; for Neutral & phospholipids (%): differentiated cells; for Phospholipids (%): undifferentiated cells
Description: For quantification of MDA-MB468 breast cancer cell differentiation (described by Munster et al. Canc. Res. 61(23), pp 8492, 2001), 1× E6 cells were seeded in 10 cm cell culture dishes and, after cultivation for 24 h, treated with HDI for further 24 h. Finally, cells were collected by trypsination, washed twice with PBS and resuspended in 1 ml of staining solution ([…] Nile Red in PBS). After incubation for at least 5 min at room temperature, cells were analysed by flow cytometry on a FACS Calibur device (Ex 488 nm, Em. at 530 nm/FL-1 and >630 nm/FL-3). From respective histograms the percentage of cells with fluorescence at 650 nm (phospholipids) and 530 nm+650 nm (phospho- and neutral lipids) were calculated. For microscopic analysis, MDA-MB468 cells were cultivated on two-well chamber slides, treated with test compound for 24 h, fixed with 1.5 vol % glutaraldehyde/PBS and finally treated with staining solution. After washing with PBS, cells were analysed by fluorescence microscopy.
The percentage of differentiated cells with neutral and phospholipids as well as undifferentiated cells with phospholipids only are summarized in the table 5.

A549 cell line = assay: Combination experiment with Trail in A549; conditions: example at about its IC50 combined with Trail
Description: A549 non-small cell lung cancer, MDA-MB468 breast cancer and […] colorectal cancer cell lines were pretreated with the examples for 4 h before adding the chemotherapeutic agents or Trail and further incubation for 72 h total. The IC50 values of these combinations were determined from concentration-effect curves and compared to IC50 values of cell treated with the anti-cancer agent only.

[4] = system: RKO colon carcinoma cells; assay: Cell-cycle dependent cytotoxicity, RKO exop21 cell system; conditions: Homo sapiens, 72 h, range stated for the listed group
Description: For determination of cell-cycle dependent cytotoxicity, the RKO exop21 cell system was applied (Schmidt et al. Oncogene 19: 2423-2429, 2000). Briefly, RKO cells with/without p21^waf1 expression (2×10^4 cells/well induced, 6×10^3 cells/well not induced) were treated with the examples for 72 h and metabolic activity quantified as described before. The expression of p21^waf1 was induced by treatment with Pronasterone A, causing a complete proliferation arrest of RKO cells in the G1 and G2 phases of the cell division cycle.

[5] = system: broad selection of non-malignant cell lines and fully transformed malignant cancer cell lines; assay: Anti-proliferative activity across cell line panel (Alamar Blue); conditions: mean over non-malignant and malignant cell lines
Description: as §1

[6] = arrested RKO cells, p21waf1 expressed, read-out: RKO arrested (p21^waf1 expressed) IC50
[7] = proliferating RKO cells, read-out: RKO proliferating IC50

Question: With O=C(C=Cc1ccn(S(=O)(=O)Cc2ccccc2)c1)NO [Compound 2, N-Hydroxy-3-(1-phenylmethanesulfonyl-1H-pyrrol-3-yl)-acrylamide] as the molecule, how does the EC50 [1] read?
Answer: 2.15 to 51.3 µM

Question: What about the IC50 [2] of the same molecule?
Answer: 0.8 to 21.6 µM

Question: How did the EC50 [1] turn out when CN(C)c1ccc(S(=O)(=O)n2ccc(/C=C/C(=O)NO)c2)cc1 [Compound 4, (E)-3-[1-(4-Dimethylamino-benzenesulfonyl)-1H-pyrrol-3-yl]-N-hydroxy-acrylamide] was run?
Answer: 2.15 to 51.3 µM

Question: What about the IC50 [2] of the same molecule?
Answer: 0.8 to 21.6 µM

Question: How did the EC50 [1] turn out when Nc1ccccc1NC(=O)/C=C/c1ccn(S(=O)(=O)c2ccc(-c3ccccc3)cc2)c1 [Compound 7, (E)-N-(2-Amino-phenyl)-3-[1-(biphenyl-4-sulfonyl)-1H-pyrrol-3-yl]-acrylamide] was run?
Answer: 2.15 to 51.3 µM

Question: And the IC50 [2]?
Answer: 0.8 to 21.6 µM

Question: Which results are given for CN(C)Cc1ccc(S(=O)(=O)n2ccc(/C=C/C(=O)NO)c2)cc1 [Compound 10, (E)-3-[1-(4-Dimethylaminomethyl-benzenesulfonyl)-1H-pyrrol-3-yl]-N-hydroxy-acrylamide]?
Answer: Neutral & phospholipids (%) ([3]; 2 μM): 55.5%; Phospholipids (%) ([3]; 2 μM): 41.6%; Neutral & phospholipids (%) ([3]; 5 μM): 70.2%; Phospholipids (%) ([3]; 5 μM): 25.2%; Effect of combination with Trail (A549 cell line): synergism is highly likely; IC50 [4, 6]: 0.45 to 15 µM; IC50 [4, 7]: 0.15 to 5.1 µM; IC50 [2]: 0.07 to 5 µM; IC50 [5]: 4.6 µM

Question: With O=C(/C=C/c1ccn(S(=O)(=O)c2ccc(-c3ccccn3)s2)c1)NO [Compound 24, (E)-N-Hydroxy-3-[1-(5-pyridin-2-yl-thiophene-2-sulfonyl)-1H-pyrrol-3-yl]-acrylamide] as the molecule, how does the “Neutral & phospholipids (%)” value ([3]; 0.8 μM) read?
Answer: 67.3%

Question: What about the “Phospholipids (%)” value ([3]; 0.8 μM) of the same molecule?
Answer: 27.9%

Question: What about the EC50 [1] of the same molecule?
Answer: 0.08 to 16 µM

Question: And the “Effect of combination with Trail” value (A549 cell line)?
Answer: synergism is highly likely

Question: What about the IC50 [4, 6] of the same molecule?
Answer: 0.45 to 15 µM

Question: What about the IC50 [4, 7] of the same molecule?
Answer: 0.15 to 5.1 µM

Question: What about the IC50 [2] of the same molecule?
Answer: 0.07 to 5 µM

Question: What about the IC50 [5] of the same molecule?
Answer: 0.57 µM
